This note sets out measurements from ChEMBL document CHEMBL1201862, “PubChem BioAssay data set” (2004).

One assay deals with Paired box protein Pax-8 (Homo sapiens, UniProt Q06710). The assay is described as follows: inhibitors of PAX8-driven TPO luciferase reporter, dose response, RMG-I cells, cherry-pick (AID 687027).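 Also: luciferase reporter driven by Pax8 target thyroperoxidase promoter measured by SteadyGlo luminescence.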 The assay is classed as functional, cell-based.
Assay [1] in a line: Luminescence Cell-Based Dose Retest to Confirm Inhibitors of Cancer Stem Cells. [Related pubchem assays (depositor defined):AID2717, AID2721]. In kind it is functional. As to conditions: Homo sapiens.
A short description of assay [2]: Luminescence Cell-Based Dose Response HTS to Identify Inhibitors of 5'UTR Stem-Loop Driven Prion Protein mRNA Translation in H4 Neuroglioblastoma Cells. [Related pubchem assays: 1827 (Project Summary), 1813 (Primary HTS)]. In kind it is functional.
Assay [3] in a line: inhibitors of SNCA 5'UTR-driven reporter translation, confirmation, H4 neuroglioma cells, luminescence (AID 1988). The assay is classed as functional, cell-based.
A short description of assay [4]: inhibitors of firefly luciferase expression or activity, dose response, H4 neuroglioma cells, luminescence (AID 1990). In kind it is functional, cell-based.
The target in assay [5] is T1, Polyadenylate-binding protein 1 (Homo sapiens, UniProt P11940). Nature of the assay: PABP1 MLLE–PAM2 binding inhibitor potency, dose response, biochemical, fluorescence polarization, FITC-PAM2 peptide (AID 602259). In kind it is functional. As to conditions: read-out: IC50_Mean.
Assay [6] has as its target T1, Polyadenylate-binding protein 1. The assay is described as follows: PABP1 MLLE–PAM2 interaction inhibitors, dose response, miRNA deadenylation inhibitor project, biochemical, fluorescence polarization, Cy5-PAM2 peptide, secondary (AID 602260). In kind it is functional. The note with it: read-out: IC50_Mean.
Assay [7] in a line: Luminescence Cell-Based Dose Confirmation HTS to Identify Inhibitors of Platelet Dense Granule Release. [Related pubchem assays: 1663 (Primary HTS), 1678 (Summary of Project)]. In kind it is functional.
Assay [8] concerns the target Luciferin 4-monooxygenase (Photinus pyralis, UniProt P08659). The assay is described as follows: firefly luciferase enzyme inhibitors, dose response, biochemical, luminescence (AID 1891).
The target of another assay is Cytochrome P450 2C9 (Homo sapiens, UniProt P11712).
The subject of the next assay is H4. Nature of the assay: Luminescence Cell-Based Dose Response HTS to Identify Activators of 5'UTR Stem-Loop Driven Prion Protein mRNA Translation in H4 Neuroglioblastoma Cells. [Related pubchem assays: 1829 (Project Summary), 1814 (Primary HTS)]. The assay is classed as functional. The note with it: Homo sapiens.
Assay [9] in a line: Luminescence Cell-Based Dose Confirmation HTS to Identify Activators of 5'UTR Stem-Loop Driven Alpha-Synuclein mRNA Translation in H4 Neuroglioblastoma Cells. [Related pubchem assays: 1829 (Project Summary), 1814 (Primary HTS)]. In kind it is functional.
Assay [10] can be described thus: Luminescence Cell-Based Dose Response HTS to Identify Activators of Luciferase Translation or Activity in H4 […] Cells. [Related pubchem assays: 1829 (Project Summary), 1814 (Primary HTS)]. The assay is classed as functional.
The target of assay [11] is T2, Heat shock factor protein 1 (Mus musculus, UniProt P38532).
T2 sequence (P38532 whole entry): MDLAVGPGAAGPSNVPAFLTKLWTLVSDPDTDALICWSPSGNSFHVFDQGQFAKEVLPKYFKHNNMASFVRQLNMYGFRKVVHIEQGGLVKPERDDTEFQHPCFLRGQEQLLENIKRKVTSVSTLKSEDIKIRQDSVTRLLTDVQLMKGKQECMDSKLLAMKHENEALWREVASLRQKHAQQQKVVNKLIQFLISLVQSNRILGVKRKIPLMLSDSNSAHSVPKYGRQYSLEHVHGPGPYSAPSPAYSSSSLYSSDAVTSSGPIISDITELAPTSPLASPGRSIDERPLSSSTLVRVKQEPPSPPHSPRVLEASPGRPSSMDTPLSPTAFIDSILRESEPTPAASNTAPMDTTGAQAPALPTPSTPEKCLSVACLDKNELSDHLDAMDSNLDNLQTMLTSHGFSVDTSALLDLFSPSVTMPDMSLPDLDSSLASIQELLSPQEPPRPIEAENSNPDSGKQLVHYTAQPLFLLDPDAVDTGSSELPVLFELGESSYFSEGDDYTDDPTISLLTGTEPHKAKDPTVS
The assay is described as follows: inhibition of MG132-induced HSE-luciferase signal, confirmation, cell-based, NIH3T3, luminescence, dose retest (AID 2382).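 Also: NIH3T3 fibroblasts with HSF1-driven luciferase reporter stressed by proteasome inhibitor MG132; luminescence from HSF1-driven luciferase expression after 8 hours of MG132 stress.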 In kind it is functional.

In assay [12] the test system is Streptococcus sp. 'group A'. The assay is described as follows: growth inhibition of control SK(-) GAS strain, dose response, counter-screen for streptokinase expression inhibitor project, luminescence, kanamycin, BacTiterGlo, confirmation (AID 1900). In kind it is functional, organism-based.
A further assay relates to Streptococcus. The assay is described as follows: Group A Streptococcus viability loss, dose response, counter-screen for streptokinase expression inhibitor project, luminescence, BacTiterGlo (AID 1915).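 Also: potency for reduction of bacterial viability or growth.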 In kind it is functional, organism-based.
The target in another assay is T3, Streptokinase A (Streptococcus pyogenes serotype M1, UniProt P10520).
T3 sequence (P10520 whole entry): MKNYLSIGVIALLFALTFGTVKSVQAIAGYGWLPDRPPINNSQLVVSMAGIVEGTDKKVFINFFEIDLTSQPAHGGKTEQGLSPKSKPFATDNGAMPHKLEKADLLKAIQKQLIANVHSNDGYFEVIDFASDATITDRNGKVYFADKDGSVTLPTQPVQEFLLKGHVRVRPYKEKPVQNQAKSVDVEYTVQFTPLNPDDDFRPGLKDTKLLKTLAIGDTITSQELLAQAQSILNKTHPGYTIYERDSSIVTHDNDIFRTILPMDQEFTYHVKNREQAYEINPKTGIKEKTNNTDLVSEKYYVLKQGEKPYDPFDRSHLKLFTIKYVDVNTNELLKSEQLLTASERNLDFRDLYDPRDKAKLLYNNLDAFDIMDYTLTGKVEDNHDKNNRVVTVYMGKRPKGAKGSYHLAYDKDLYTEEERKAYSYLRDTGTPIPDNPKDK
The assay is described as follows: S. pyogenes streptokinase expression inhibitors, potency, dose response, plasminogen activation absorbance, OD405 (AID 1914).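 Also: secreted streptokinase activity via plasminogen activation per viability signal from cell pellet.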 The assay is classed as functional, Streptococcus pyogenes M1 GAS.

Active and inactive are the calls of the source. Rule as the data show it, for most assays here: actives have a measured EC50 and inactives only a lower limit. Where only a bound is given, the exact number is not on record here.

Sequence of Luciferin 4-monooxygenase (P08659 whole entry): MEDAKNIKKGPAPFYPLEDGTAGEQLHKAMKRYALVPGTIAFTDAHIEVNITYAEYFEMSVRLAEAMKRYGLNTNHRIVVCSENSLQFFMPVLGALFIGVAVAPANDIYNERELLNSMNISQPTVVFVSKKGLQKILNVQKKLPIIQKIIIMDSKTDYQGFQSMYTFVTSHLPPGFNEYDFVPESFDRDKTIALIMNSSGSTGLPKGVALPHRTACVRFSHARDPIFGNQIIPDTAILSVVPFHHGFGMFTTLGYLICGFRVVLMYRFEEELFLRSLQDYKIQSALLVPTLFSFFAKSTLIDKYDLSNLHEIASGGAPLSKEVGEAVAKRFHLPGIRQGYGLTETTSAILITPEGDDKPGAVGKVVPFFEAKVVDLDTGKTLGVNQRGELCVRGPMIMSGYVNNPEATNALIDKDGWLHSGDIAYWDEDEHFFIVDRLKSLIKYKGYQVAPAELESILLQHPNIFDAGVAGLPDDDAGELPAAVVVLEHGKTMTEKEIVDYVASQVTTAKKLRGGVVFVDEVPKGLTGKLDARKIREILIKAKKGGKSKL
T1 sequence (P11940 whole entry): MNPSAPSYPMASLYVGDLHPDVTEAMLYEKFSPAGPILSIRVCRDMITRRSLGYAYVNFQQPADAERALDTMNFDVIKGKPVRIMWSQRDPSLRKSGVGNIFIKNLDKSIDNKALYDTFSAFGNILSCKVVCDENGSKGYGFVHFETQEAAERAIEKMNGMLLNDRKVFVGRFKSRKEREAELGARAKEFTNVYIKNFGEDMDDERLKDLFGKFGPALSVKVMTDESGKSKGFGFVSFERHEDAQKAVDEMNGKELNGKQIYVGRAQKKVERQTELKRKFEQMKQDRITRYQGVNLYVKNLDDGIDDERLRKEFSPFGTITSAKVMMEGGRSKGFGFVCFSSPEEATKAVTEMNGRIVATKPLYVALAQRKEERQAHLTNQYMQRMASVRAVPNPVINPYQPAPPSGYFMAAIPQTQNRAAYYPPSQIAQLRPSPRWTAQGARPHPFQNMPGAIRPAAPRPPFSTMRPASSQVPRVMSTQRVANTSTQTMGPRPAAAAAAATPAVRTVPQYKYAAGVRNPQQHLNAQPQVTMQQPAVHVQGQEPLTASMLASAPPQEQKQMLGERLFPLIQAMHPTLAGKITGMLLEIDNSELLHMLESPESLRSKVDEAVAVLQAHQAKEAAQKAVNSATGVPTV
Sequence of Paired box protein Pax-8 (Q06710 whole entry): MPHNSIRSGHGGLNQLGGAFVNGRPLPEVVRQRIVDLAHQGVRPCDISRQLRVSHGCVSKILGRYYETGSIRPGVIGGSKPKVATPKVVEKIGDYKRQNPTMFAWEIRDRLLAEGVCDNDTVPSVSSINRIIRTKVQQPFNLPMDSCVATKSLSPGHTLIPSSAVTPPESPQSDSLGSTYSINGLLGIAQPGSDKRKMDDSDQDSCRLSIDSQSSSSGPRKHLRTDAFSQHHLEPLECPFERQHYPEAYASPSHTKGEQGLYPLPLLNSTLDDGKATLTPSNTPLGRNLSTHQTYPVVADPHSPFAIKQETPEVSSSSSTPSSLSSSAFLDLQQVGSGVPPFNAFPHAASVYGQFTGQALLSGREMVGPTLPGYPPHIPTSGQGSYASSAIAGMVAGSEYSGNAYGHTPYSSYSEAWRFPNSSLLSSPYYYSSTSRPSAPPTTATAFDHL
Sequence of Cytochrome P450 2C9 (P11712 whole entry): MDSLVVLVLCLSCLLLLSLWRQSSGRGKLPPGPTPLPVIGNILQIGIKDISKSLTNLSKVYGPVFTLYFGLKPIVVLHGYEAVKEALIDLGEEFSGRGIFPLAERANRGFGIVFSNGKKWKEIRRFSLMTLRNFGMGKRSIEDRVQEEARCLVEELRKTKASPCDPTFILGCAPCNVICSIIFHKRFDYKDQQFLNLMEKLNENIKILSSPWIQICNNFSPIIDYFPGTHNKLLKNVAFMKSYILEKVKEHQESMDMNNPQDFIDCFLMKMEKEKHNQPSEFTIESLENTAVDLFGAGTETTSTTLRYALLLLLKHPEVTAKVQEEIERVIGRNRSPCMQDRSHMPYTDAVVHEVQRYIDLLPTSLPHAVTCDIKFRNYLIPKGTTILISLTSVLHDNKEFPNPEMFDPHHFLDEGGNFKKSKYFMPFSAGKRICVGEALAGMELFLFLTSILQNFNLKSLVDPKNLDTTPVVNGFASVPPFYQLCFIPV

For `CC1(Cc2ccc(OC(F)(F)F)cc2)C(=O)Nc2ccc(S(=O)(=O)NC3CCCCC3)cc21` (stereo not drawn), the AC50 on Paired box protein Pax-8 is 9.35 µM (active).
For `Cc1nnc2nc(SCC(=O)NC3CCCCC3)n(-c3ccc(Br)cc3)c(N)c1-2`, the AC50 in assay [1] is 9.82 µM (active); at Paired box protein Pax-8, 8.51 µM (active). Also, the results for the EC50 in assay [2], in assay [3] and in assay [4] were 13.9 µM (active), 9.53 µM (active) and 14.6 µM (active), respectively.
For the compound `Cc1cc(C)cc(NC(S)=Nc2ccc(Cl)c(Cl)c2)c1`, the IC50 in assay [5] and in assay [6] was > 66 µM (inactive) each time.
As for `Cc1c(C(=O)N2CCCC2)sc(NC(=O)c2cccc(Cl)c2)c1C#N`, the EC50 in [7] and in [8] was > 112 µM (not active) each time.
For the compound `O=C(Cc1ccc2c(c1)CCCC2)Nc1ccccc1Br`, the IC50 in assay [5] and in assay [6] was > 66 µM (inactive) each time. In addition, the AC50 at Cytochrome P450 2C9 was 15.8 µM (inconclusive).
In the case of `CCOC(=O)c1sc2nc(NC(=O)C3CC3)sc2c1C`, the concentration for a half-maximal effect (EC50) with H4 is 28.4 µM (inconclusive); in assay [9] it was 10.8 µM (active); in assay [10], 57.6 µM (active).
As to `Cc1ccc(-n2c(C)cc3c2CCCC3=O)cc1`, the IC50 in [5] is 41.2 µM (inactive); in assay [6], > 66 µM (inactive).
Consider `CCOC(=O)C1(Cc2ccc(OC)cc2)CCN(C(=O)c2csc(C)n2)CC1`, for which the 50% effective concentration (EC50) in assay [11] is listed as > 195 µM (not active).
Still for that read-out and setting: for `Cc1ccc(S(=O)(=O)N2CCCC(C(=O)NCCc3ccc4c(c3)OCO4)C2)cc1` (stereo not drawn) the value was > 195 µM (not active).
Take `Cc1cc(NC(=O)CSc2nccn2-c2cccc(Cl)c2)no1`: the IC50 in assay [5] and in [6] was > 66 µM (inactive) each time.
Consider `O=C(c1ccccc1)N(CCO)Cc1cc2cc3c(cc2nc1O)OCCO3`, for which the IC50 in assay [5] and in assay [6] was > 66 µM (inactive) in each case.
Take `Oc1ccc[n+](CCCCC[n+]2cccc(O)c2)c1`: the figures for the EC50 in [7] and in [8] were 19 µM (active) and > 112 µM (not active), respectively.
Regarding `C[C@H](CO)N1C[C@H](C)[C@@H](CN(C)CC2CCCCC2)Oc2ccc(NC(=O)Nc3ccc4c(c3)OCO4)cc2CC1=O`, at Paired box protein Pax-8, the AC50 is 11 µM (active).
Regarding `O=C(NCCc1ccccc1)c1ccccc1NC(=O)C1CCCCC1C(=O)O` (stereo not drawn), the EC50 was 5.14 µM (active) in the assay on H4, 19.1 µM (active) in assay [9] and 17.9 µM (active) in assay [10].
For `COC(=O)c1sccc1N/N=C/c1ccc(OC)c(OC)c1OC` the same measures were 40.6 µM (active), 87.4 µM (active) and 9.96 µM (active).
As for `CC(=O)C1C(c2ccc(Cl)cc2)NC(=O)NC1(O)C(F)(F)F` (stereo not drawn), the EC50 in assay [7] and in assay [8] was > 112 µM (not active) throughout.
In the case of `COc1ccccc1N1CCN(C(=O)CSc2ncnc3c2cnn3-c2ccc(C)c(C)c2)CC1`, the EC50 in the assay with H4 is 54.1 µM (active); in assay [9] it was 39.4 µM (active); in assay [10], 15.4 µM (active).
As for `Fc1ccc(-c2csc3ncnc(N4CCc5ccccc5C4)c23)cc1`, the EC50 in assay [12] is 9.67 µM (active); in [2], > 120 µM (not active); in [3], > 120 µM (not active); in the assay on Streptococcus it was > 50 µM (not active); in assay [4], 23.6 µM (active); on Streptokinase A, 6.92 µM (active).
Turning to `CC(=O)Nc1c(I)c(NC(C)=O)c(I)c(C(=O)O)c1I` [DIATRIZOATE MEGLUMINE], the EC50 in assay [11] was > 195 µM (not active).
For the compound `Cc1cc(C#N)c2ccccc2n1`, the EC50 in assay [7] and in assay [8] was > 112 µM (not active) in each case.
For the compound `OCCNc1nc2nonc2nc1NCCO`, the EC50 in [11] was > 195 µM (not active).
As to `COCCn1c(SCC(=O)NCC2CCCO2)nc2c(c1=O)SCC2` (stereo not drawn), the IC50 in assay [5] and in assay [6] was > 66 µM (inactive) throughout.
Regarding `CCc1ccc(C(=O)Nn2cnc3ccccc3c2=O)cc1`, the EC50 is 0.887 µM (active) in the assay with H4, 2.82 µM (active) in [9] and 26.8 µM (active) in [10].
For `O=C(/C=C/c1ccccc1)NC(=S)Nc1ccccc1O`, the EC50 is 1.9 µM (active) in the assay on H4, 0.387 µM (active) in assay [9] and 66.3 µM (active) in assay [10].
Consider `COc1ccc(Cl)cc1NC(=O)Nc1cc(C)on1`, for which the EC50 in assay [7] and in [8] was > 112 µM (not active) each time.
For `CC1CC(C)(C)NC(=S)S1` (stereo not drawn), the IC50 in assay [5] and in assay [6] was > 66 µM (inactive) throughout.
Turning to `COc1ccc(C(=S)N2CCN(c3ccccc3C)CC2)cc1`, the IC50 in [5] and in assay [6] was > 66 µM (inactive) in each case.
As for `COc1ccc(C(=O)NC(=S)NCCO)cc1Br`, the EC50 in assay [11] is > 195 µM (not active).
Consider `Cc1cccc(CC(=O)N2CCN=C2SCc2ccc([N+](=O)[O-])cc2)c1`, for which the IC50 in assay [5] and in assay [6] was > 66 µM (inactive) each time.
For `Cc1cccc(NC2(C(F)(F)F)N=C3SCCN3C2=O)n1` (stereo not drawn), the IC50 in assay [5] and in assay [6] was > 66 µM (inactive) each time.
Take `Cc1ccccc1OCC(=O)Nc1ccc2c(c1)C(=O)N(CCC(=O)O)C2=O`: in [11], the EC50 is 32.6 µM (active).
Same read-out and setting: for `c1csc(-c2nnsc2-c2nc3ccccc3[nH]2)c1` the value was > 195 µM (not active).
For the compound `O=C(CSc1ccc2nnc(-c3ccccc3)n2n1)N1CCCCC1`, the IC50 in assay [5] and in assay [6] was > 66 µM (inactive) each time.
For `CC(=O)Nc1ccc(Nc2nc(-c3cc4ccccc4oc3=O)cs2)cc1`, the results for the EC50 (in the assay with H4; in assay [9]; in assay [10]) were 1.7 µM (active), 0.397 µM (active) and 0.676 µM (active), respectively.
Consider `O=C1OC(NC(=O)c2ccccc2)C(n2cc(CO)nn2)=C1Cl` (stereo not drawn), for which the EC50 in assay [11] is 35.7 µM (active).
On the same count and under the same terms, the same measure for `COc1cc(NC(=O)CSc2nnnn2-c2ccccc2)cc(OC)c1OC`: > 195 µM (not active).
For the compound `CC1CC(c2ccccc2)=Nc2ccccc2N1` (stereo not drawn), the values for the EC50 (in the assay with H4; in assay [9]; in [10]) were 43 µM (active), 8.32 µM (active) and 10.6 µM (active), respectively.
Regarding `CC(C)c1nnc(SCC(=O)NCCC2=CCCCC2)n1N`, the IC50 in assay [5] and in assay [6] was > 66 µM (inactive) each time.
Regarding `COc1cccc(S(=O)(=O)N(C)C[C@H]2OCc3ccccc3-c3c(n(C)c4ccccc34)C(=O)N([C@@H](C)CO)C[C@H]2C)c1`, the AC50 at Paired box protein Pax-8 was 6.16 µM (active).
For `COc1ccc(OCC(=O)N2CCN(c3cccc(C(F)(F)F)c3)CC2)cc1`, the EC50 in assay [11] is recorded as > 195 µM (not active).
